Assay results as given in PubChem BioAssay (NCI).
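Where inhibition never reached the appropriate level, the endpoint shown equals the highest concentration tested. Otherwise, values were interpolated linearly from a five-concentration, 48-hour dose response in 96-well plates. Abbreviation: GI50, concentration required for 50% inhibition of growth. TGI: total growth inhibition.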

How the values were obtained:
Experiment in all cases: inhibition of tumour cell growth, NCI panel, 48 h
SW-620 colon = test system: SW-620 colon
SF-539 CNS = test system: SF-539 CNS
RPMI-8226 leukemia = test system: RPMI-8226 leukemia
UO-31 renal = test system: UO-31 renal
SF-295 CNS = test system: SF-295 CNS
ACHN renal = test system: ACHN renal
EKVX NSCLC = test system: EKVX NSCLC
MDA-MB-435 = test system: MDA-MB-435
MCF7 breast = test system: MCF7 breast
BT-549 breast = test system: BT-549 breast
NCI-H226 lung = test system: NCI-H226 lung
SNB-75 CNS = test system: SNB-75 CNS
RXF 393 renal = test system: RXF 393 renal
SR leukemia = test system: SR leukemia
NCI-H522 lung = test system: NCI-H522 lung
SNB-19 CNS = test system: SNB-19 CNS
SK-MEL-5 melanoma = test system: SK-MEL-5 melanoma
OVCAR-3 ovarian = test system: OVCAR-3 ovarian
OVCAR-4 ovarian = test system: OVCAR-4 ovarian
K-562 leukemia = test system: K-562 leukemia
SN12C renal = test system: SN12C renal
HCT-15 colon = test system: HCT-15 colon
A549 NSCLC = test system: A549 NSCLC
CCRF-CEM leukemia = test system: CCRF-CEM leukemia
MDA-MB-231 breast = test system: MDA-MB-231 breast
HT29 colon = test system: HT29 colon
UACC-62 melanoma = test system: UACC-62 melanoma
OVCAR-8 ovarian = test system: OVCAR-8 ovarian
786-0 renal = test system: 786-0 renal
SK-MEL-2 melanoma = test system: SK-MEL-2 melanoma
OVCAR-5 ovarian = test system: OVCAR-5 ovarian
SK-OV-3 ovarian = test system: SK-OV-3 ovarian
A498 renal = test system: A498 renal
HL-60(TB) leukemia = test system: HL-60(TB) leukemia
PC-3 prostate = test system: PC-3 prostate
HS 578T breast = test system: HS 578T breast
DU-145 prostate = test system: DU-145 prostate
COLO 205 colon = test system: COLO 205 colon
LOX IMVI melanoma = test system: LOX IMVI melanoma
TK-10 renal = test system: TK-10 renal
HOP-62 NSCLC = test system: HOP-62 NSCLC
NCI-H460 lung = test system: NCI-H460 lung
U251 CNS = test system: U251 CNS
KM12 colon = test system: KM12 colon
MOLT-4 leukemia = test system: MOLT-4 leukemia
HCT-116 colon = test system: HCT-116 colon
NCI/ADR-RES ovarian = test system: NCI/ADR-RES ovarian
HOP-92 NSCLC = test system: HOP-92 NSCLC
IGROV1 ovarian = test system: IGROV1 ovarian
SF-268 CNS = test system: SF-268 CNS
HCC-2998 colon = test system: HCC-2998 colon
NCI-H23 lung = test system: NCI-H23 lung
T-47D breast = test system: T-47D breast

`COC(=O)[C@@H](C)C[C@H](Cc1ccccc1)NC(=O)c1nc([C@@H](C[C@H](C(C)C)N(C)C(=O)[C@@H](NC(=O)[C@H]2CCCCN2C)C(C)C)OC(C)=O)sc1C` gave a GI50 (SW-620 colon) of less than 0.00167 µM, a TGI (SW-620 colon) greater than 16.7 µM and a GI50 (SF-539 CNS) of 0.00239 µM. For the same compound, the TGI (SF-539 CNS) was 0.00822 µM, the GI50 (RPMI-8226 leukemia) was less than 0.00167 µM and the TGI (RPMI-8226 leukemia) was greater than 11.4 µM. The GI50 (UO-31 renal) was 0.0118 µM, the TGI (UO-31 renal) was greater than 16.7 µM and the GI50 (SF-295 CNS) was less than 0.00167 µM. For the same compound, the TGI (SF-295 CNS) was greater than 16.7 µM, the GI50 (ACHN renal) was 0.00585 µM and the TGI (ACHN renal) was greater than 16.7 µM. It also gave a GI50 (EKVX NSCLC) of 0.00666 µM, a TGI (EKVX NSCLC) greater than 16.7 µM and a GI50 (MDA-MB-435) of less than 0.00167 µM. It also gave a TGI (MDA-MB-435) of less than 0.00167 µM, a GI50 (MCF7 breast) of less than 0.00167 µM and a TGI (MCF7 breast) greater than 16.7 µM. It also gave a GI50 (BT-549 breast) of less than 0.00167 µM, a TGI (BT-549 breast) of 0.0568 µM and a GI50 (NCI-H226 lung) of 0.0275 µM. It also gave a TGI (NCI-H226 lung) greater than 16.7 µM, a GI50 (SNB-75 CNS) of less than 0.00167 µM and a TGI (SNB-75 CNS) greater than 7.57 µM. It also gave a GI50 (RXF 393 renal) of less than 0.00167 µM, a TGI (RXF 393 renal) greater than 16.7 µM and a GI50 (SR leukemia) of less than 0.00167 µM. For the same compound, the TGI (SR leukemia) was greater than 16.7 µM, the GI50 (NCI-H522 lung) was less than 0.00167 µM and the TGI (NCI-H522 lung) was less than 0.00167 µM. It also gave a GI50 (SNB-19 CNS) of less than 0.00167 µM, a TGI (SNB-19 CNS) greater than 16.7 µM and a GI50 (SK-MEL-5 melanoma) of less than 0.00167 µM. For the same compound, the TGI (SK-MEL-5 melanoma) was 0.0565 µM, the GI50 (OVCAR-3 ovarian) was less than 0.00167 µM and the GI50 (OVCAR-4 ovarian) was 0.0179 µM. It also gave a TGI (OVCAR-4 ovarian) greater than 16.7 µM, a GI50 (K-562 leukemia) of less than 0.00167 µM and a TGI (K-562 leukemia) greater than 16.7 µM. It also gave a GI50 (SN12C renal) of less than 0.00167 µM, a TGI (SN12C renal) greater than 16.7 µM and a GI50 (HCT-15 colon) of 0.00536 µM. For the same compound, the TGI (HCT-15 colon) was greater than 16.7 µM, the GI50 (A549 NSCLC) was 0.00734 µM and the TGI (A549 NSCLC) was greater than 16.7 µM. For the same compound, the GI50 (CCRF-CEM leukemia) was less than 0.00167 µM, the TGI (CCRF-CEM leukemia) was greater than 16.7 µM and the GI50 (MDA-MB-231 breast) was less than 0.00167 µM. It also gave a TGI (MDA-MB-231 breast) of 0.441 µM, a GI50 (HT29 colon) of less than 0.00167 µM and a TGI (HT29 colon) of 0.088 µM. For the same compound, the GI50 (UACC-62 melanoma) was less than 0.00167 µM, the TGI (UACC-62 melanoma) was greater than 16.7 µM and the GI50 (OVCAR-8 ovarian) was less than 0.00167 µM. The TGI (OVCAR-8 ovarian) was greater than 16.7 µM, the GI50 (786-0 renal) was less than 0.00167 µM and the TGI (786-0 renal) was greater than 16.7 µM. It also gave a GI50 (SK-MEL-2 melanoma) of less than 0.00167 µM, a TGI (SK-MEL-2 melanoma) greater than 16.7 µM and a GI50 (OVCAR-5 ovarian) of 0.00478 µM. It also gave a TGI (OVCAR-5 ovarian) greater than 16.7 µM, a GI50 (SK-OV-3 ovarian) of less than 0.00167 µM and a TGI (SK-OV-3 ovarian) greater than 16.7 µM. The GI50 (A498 renal) was less than 0.00167 µM, the TGI (A498 renal) was greater than 3.99 µM and the GI50 (HL-60(TB) leukemia) was less than 0.00167 µM. The TGI (HL-60(TB) leukemia) was less than 0.00167 µM, the GI50 (PC-3 prostate) was less than 0.00167 µM and the TGI (PC-3 prostate) was greater than 16.7 µM. It also gave a GI50 (HS 578T breast) of 0.0024 µM, a TGI (HS 578T breast) greater than 16.7 µM and a GI50 (DU-145 prostate) of less than 0.00167 µM. For the same compound, the TGI (DU-145 prostate) was greater than 16.7 µM, the GI50 (COLO 205 colon) was less than 0.00167 µM and the TGI (COLO 205 colon) was 0.00926 µM. It also gave a GI50 (LOX IMVI melanoma) of less than 0.00167 µM, a TGI (LOX IMVI melanoma) greater than 16.7 µM and a GI50 (TK-10 renal) greater than 10.4 µM. It also gave a TGI (TK-10 renal) greater than 16.7 µM, a GI50 (HOP-62 NSCLC) of 0.00186 µM and a TGI (HOP-62 NSCLC) greater than 16.7 µM. For the same compound, the GI50 (NCI-H460 lung) was less than 0.00167 µM, the TGI (NCI-H460 lung) was greater than 16.7 µM and the GI50 (U251 CNS) was less than 0.00167 µM. It also gave a TGI (U251 CNS) greater than 16.7 µM, a GI50 (KM12 colon) of less than 0.00167 µM and a TGI (KM12 colon) greater than 16.7 µM. The GI50 (MOLT-4 leukemia) was 0.00225 µM, the TGI (MOLT-4 leukemia) was greater than 16.7 µM and the GI50 (HCT-116 colon) was less than 0.00167 µM. The TGI (HCT-116 colon) was greater than 9.5 µM, the GI50 (NCI/ADR-RES ovarian) was 0.0521 µM and the TGI (NCI/ADR-RES ovarian) was greater than 16.7 µM. It also gave a GI50 (HOP-92 NSCLC) of 0.00323 µM, a TGI (HOP-92 NSCLC) of 16.5 µM and a GI50 (IGROV1 ovarian) of 0.0017 µM. It also gave a TGI (IGROV1 ovarian) greater than 16.7 µM, a GI50 (SF-268 CNS) of 0.00472 µM and a TGI (SF-268 CNS) greater than 16.7 µM. For the same compound, the GI50 (HCC-2998 colon) was less than 0.00167 µM, the TGI (HCC-2998 colon) was greater than 16.7 µM and the GI50 (NCI-H23 lung) was 0.00302 µM. The TGI (NCI-H23 lung) was greater than 16.7 µM.

Work on `Nc1nc(Cl)cc(OCC2(O)CC(COC(=O)c3ccccc3)C2)n1` (stereo not drawn) yielded a GI50 (RPMI-8226 leukemia) of 85.5 µM, a GI50 (UO-31 renal) of 91.5 µM and a GI50 (SF-295 CNS) of 78.5 µM. For the same compound, the GI50 (EKVX NSCLC) was 13.2 µM, the GI50 (MCF7 breast) was 47.7 µM and the GI50 (NCI-H226 lung) was 81 µM. It also gave a GI50 (SNB-75 CNS) of 53 µM, a GI50 (SR leukemia) of 32.1 µM and a GI50 (SNB-19 CNS) of 34.1 µM. The GI50 (SK-MEL-5 melanoma) was 37.3 µM, the GI50 (OVCAR-3 ovarian) was 82.2 µM and the GI50 (OVCAR-4 ovarian) was 38.2 µM. It also gave a GI50 (K-562 leukemia) of 40.3 µM, a GI50 (A549 NSCLC) of 67.8 µM and a GI50 (CCRF-CEM leukemia) of 47.9 µM. For the same compound, the GI50 (MDA-MB-231 breast) was 48.1 µM, the GI50 (HT29 colon) was 70 µM and the GI50 (OVCAR-8 ovarian) was 71 µM. For the same compound, the GI50 (HL-60(TB) leukemia) was 58.4 µM, the GI50 (HS 578T breast) was 46.6 µM and the GI50 (COLO 205 colon) was 46.6 µM. For the same compound, the GI50 (LOX IMVI melanoma) was 76.1 µM, the GI50 (U251 CNS) was 76.1 µM and the GI50 (KM12 colon) was 30.6 µM. The GI50 (MOLT-4 leukemia) was 26.9 µM, the TGI (MOLT-4 leukemia) was 83.7 µM and the GI50 (T-47D breast) was 30.7 µM. It also gave a GI50 (HCT-116 colon) of 82.9 µM, a GI50 (NCI/ADR-RES ovarian) of 39.5 µM and a GI50 (NCI-H23 lung) of 51.8 µM.
